DC50 and Dmax data for 11 molecules are collected here from patent publication US12448389B2, “BRM targeting compounds and associated methods of use” (Prelude Therapeutics Incorporated, priority 2020, dated 2025).

In one experiment the target is T1, SMARCA2-HiBiT (Homo sapiens, UniProt P51531).
T1 construct: SMARCA2-HiBiT knock-in Hela monoclonal cell (CS302366); host or cells: HeLa monoclonal knock-in line (CRISPR HiBiT knock-in at the endogenous locus, heterozygous)
Nature of the experiment: SMARCA2 HiBiT degradation assay in HeLa cells. Conditions: 18 hours incubation; for DC50: read-out: HeLa_HiBit-SM2 DC50; for Dmax: HeLa, read-out: HeLa-HiBit-SM2 Dmax (%). The format is cell-based. As to the method:
(§1) HiBiT peptide knock-in of SMARCA2 in LgBiT expressing HEK293T cells was performed by CRISPR-mediated tagging system as described Promega. The homozygous HiBiT knock-in on c-terminus SMARCA2 was confirmed by sanger sequence. SMARCA2-HiBiT knock-in Hela monoclonal cell (CS302366) and SMARCA4-HiBiT knock-in Hela monoclonal cell (CS3023226) were purchased from Promega. The heterozygous HiBiT-knock-in was confirmed by sanger sequence in both SMARCA2-HiBiT and SMARCA4-HiBiT monoclonal cells.
(§2) SMARCA2 HiBiT and SMARCA4 HiBiT Degradation Assay in HeLa Cells
(§3) Dispense 10 ul aliquot of prepared Hela-SMARCA2-HiBiT or Hela-SMARCA4-HiBiT cells (1:1 ratio of cells:Trypan Blue (#1450013, Bio-Rad)) onto cell counting slide (#145-0011, Bio-Rad) and obtain cell density and cell viability using cell counter (TC20, Bio-Rad). Remove appropriate volume of resuspended cells from culture flask to accommodate 2500 cells/well @20 μL/well. Transfer Hela-HiBiT cells to 50 mL conical (#430290, Corning). Spin down at 1000 rpm for 5 min using tabletop centrifuge (SPINCHRON 15, Beckman). Discard supernatant and resuspend cell pellet in modified EMEM (#30-2003, ATCC) cell culture media containing 10% FBS (F2422-500ML, Sigma), and 1×Penicillin/Streptomycin (200 g/L) (30-002-CI, Corning) to a cell density of 125,000 cells/mL. Dispense 20 μL of resuspended Hela-HiBit cells per well in 384-well TC treated plate (#12-565-343, Thermo Scientific) using standard cassette (#50950372, Thermo Scientific) on Multidrop Combi (#5840310, Thermo Scientific) inside laminar flow cabinet. Dispense test compounds onto plates using digital liquid dispenser (D300E, Tecan). Incubate plates in humidified tissue culture incubator @37° C. for 18 hours. Add 20 μL of prepared Nano-Glo® HiBiT Lytic detection buffer (N3050, Promega) to each well of 384-well plate using small tube cassette (#24073295, Thermo Scientific) on Multidrop Combi, incubate @RT for 30-60 min. Read plates on microplate reader (Envision 2105, PerkinElmer) using 384 well Ultra-Sensitive luminescence mode. Raw data files and compound information reports are swept into centralized data lake and deconvoluted using automated scripts designed by TetraScience, Inc. Data analysis, curve-fitting and reporting done in Dotmatics Informatics Suite using Screening Ultra module.

Another experiment addresses T2, SMARCA4-HiBiT (Homo sapiens, UniProt P51532).
T2 construct: SMARCA4-HiBiT knock-in Hela monoclonal cell (CS3023226); host or cells: HeLa monoclonal knock-in line (CRISPR HiBiT knock-in at the endogenous locus, heterozygous)
As to the kind of experiment: SMARCA4 HiBiT degradation assay in HeLa cells. It counts as cell-based. The settings on record: 18 hours incubation; for DC50: read-out: HeLa-HiBit-SM4 DC50; for Dmax: HeLa, read-out: HeLa-HiBit-SM4 Dmax (%). As to the method:
as §1, §2, §3

Where only a bound is given, the exact number is not on record here.

A word on the DC50: it is the concentration at which degradation of the target reaches its halfway point. What is called Dmax is the largest share of the target that was removed.

T2 sequence (P51532 whole entry): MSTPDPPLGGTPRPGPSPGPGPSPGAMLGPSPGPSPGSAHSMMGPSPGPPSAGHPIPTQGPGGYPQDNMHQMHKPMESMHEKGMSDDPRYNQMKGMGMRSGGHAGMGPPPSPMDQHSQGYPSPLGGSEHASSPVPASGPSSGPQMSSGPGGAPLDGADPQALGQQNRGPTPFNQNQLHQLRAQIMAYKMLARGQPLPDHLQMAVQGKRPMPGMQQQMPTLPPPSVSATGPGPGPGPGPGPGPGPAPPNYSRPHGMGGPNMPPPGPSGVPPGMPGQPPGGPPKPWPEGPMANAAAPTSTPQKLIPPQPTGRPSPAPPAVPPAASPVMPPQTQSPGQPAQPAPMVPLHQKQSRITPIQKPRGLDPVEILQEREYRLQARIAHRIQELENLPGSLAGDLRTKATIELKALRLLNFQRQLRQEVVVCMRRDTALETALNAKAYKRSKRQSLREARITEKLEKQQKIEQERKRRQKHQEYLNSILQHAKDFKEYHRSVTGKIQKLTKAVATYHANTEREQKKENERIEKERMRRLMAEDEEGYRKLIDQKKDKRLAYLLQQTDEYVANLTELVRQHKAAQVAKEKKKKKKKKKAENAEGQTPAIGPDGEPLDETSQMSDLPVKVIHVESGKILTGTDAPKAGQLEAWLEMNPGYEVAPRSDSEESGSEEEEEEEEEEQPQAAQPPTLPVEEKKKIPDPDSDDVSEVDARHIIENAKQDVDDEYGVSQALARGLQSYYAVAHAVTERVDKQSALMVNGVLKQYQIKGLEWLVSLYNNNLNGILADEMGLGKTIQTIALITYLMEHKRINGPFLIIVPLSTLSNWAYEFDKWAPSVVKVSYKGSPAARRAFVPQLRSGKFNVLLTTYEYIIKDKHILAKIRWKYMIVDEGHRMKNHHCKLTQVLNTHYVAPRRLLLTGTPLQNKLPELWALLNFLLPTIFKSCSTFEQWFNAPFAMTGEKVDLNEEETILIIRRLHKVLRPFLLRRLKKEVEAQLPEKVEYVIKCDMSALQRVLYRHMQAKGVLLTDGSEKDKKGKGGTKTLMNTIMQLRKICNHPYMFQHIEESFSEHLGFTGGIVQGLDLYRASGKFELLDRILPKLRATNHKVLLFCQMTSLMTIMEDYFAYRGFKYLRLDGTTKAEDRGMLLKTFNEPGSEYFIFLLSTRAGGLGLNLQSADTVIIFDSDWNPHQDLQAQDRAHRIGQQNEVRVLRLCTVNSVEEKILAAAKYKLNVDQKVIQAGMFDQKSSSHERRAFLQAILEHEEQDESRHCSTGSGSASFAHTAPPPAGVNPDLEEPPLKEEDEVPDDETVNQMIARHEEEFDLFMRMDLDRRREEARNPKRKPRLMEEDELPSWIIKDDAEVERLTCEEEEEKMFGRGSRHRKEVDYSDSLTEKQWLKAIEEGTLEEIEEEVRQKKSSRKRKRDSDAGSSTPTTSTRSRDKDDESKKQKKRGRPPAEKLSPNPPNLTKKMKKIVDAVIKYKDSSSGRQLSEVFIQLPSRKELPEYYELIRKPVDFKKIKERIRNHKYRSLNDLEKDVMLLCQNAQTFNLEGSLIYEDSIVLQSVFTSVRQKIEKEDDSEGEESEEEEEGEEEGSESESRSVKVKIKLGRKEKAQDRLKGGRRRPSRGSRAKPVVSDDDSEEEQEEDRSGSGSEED
T1 sequence (P51531 whole entry): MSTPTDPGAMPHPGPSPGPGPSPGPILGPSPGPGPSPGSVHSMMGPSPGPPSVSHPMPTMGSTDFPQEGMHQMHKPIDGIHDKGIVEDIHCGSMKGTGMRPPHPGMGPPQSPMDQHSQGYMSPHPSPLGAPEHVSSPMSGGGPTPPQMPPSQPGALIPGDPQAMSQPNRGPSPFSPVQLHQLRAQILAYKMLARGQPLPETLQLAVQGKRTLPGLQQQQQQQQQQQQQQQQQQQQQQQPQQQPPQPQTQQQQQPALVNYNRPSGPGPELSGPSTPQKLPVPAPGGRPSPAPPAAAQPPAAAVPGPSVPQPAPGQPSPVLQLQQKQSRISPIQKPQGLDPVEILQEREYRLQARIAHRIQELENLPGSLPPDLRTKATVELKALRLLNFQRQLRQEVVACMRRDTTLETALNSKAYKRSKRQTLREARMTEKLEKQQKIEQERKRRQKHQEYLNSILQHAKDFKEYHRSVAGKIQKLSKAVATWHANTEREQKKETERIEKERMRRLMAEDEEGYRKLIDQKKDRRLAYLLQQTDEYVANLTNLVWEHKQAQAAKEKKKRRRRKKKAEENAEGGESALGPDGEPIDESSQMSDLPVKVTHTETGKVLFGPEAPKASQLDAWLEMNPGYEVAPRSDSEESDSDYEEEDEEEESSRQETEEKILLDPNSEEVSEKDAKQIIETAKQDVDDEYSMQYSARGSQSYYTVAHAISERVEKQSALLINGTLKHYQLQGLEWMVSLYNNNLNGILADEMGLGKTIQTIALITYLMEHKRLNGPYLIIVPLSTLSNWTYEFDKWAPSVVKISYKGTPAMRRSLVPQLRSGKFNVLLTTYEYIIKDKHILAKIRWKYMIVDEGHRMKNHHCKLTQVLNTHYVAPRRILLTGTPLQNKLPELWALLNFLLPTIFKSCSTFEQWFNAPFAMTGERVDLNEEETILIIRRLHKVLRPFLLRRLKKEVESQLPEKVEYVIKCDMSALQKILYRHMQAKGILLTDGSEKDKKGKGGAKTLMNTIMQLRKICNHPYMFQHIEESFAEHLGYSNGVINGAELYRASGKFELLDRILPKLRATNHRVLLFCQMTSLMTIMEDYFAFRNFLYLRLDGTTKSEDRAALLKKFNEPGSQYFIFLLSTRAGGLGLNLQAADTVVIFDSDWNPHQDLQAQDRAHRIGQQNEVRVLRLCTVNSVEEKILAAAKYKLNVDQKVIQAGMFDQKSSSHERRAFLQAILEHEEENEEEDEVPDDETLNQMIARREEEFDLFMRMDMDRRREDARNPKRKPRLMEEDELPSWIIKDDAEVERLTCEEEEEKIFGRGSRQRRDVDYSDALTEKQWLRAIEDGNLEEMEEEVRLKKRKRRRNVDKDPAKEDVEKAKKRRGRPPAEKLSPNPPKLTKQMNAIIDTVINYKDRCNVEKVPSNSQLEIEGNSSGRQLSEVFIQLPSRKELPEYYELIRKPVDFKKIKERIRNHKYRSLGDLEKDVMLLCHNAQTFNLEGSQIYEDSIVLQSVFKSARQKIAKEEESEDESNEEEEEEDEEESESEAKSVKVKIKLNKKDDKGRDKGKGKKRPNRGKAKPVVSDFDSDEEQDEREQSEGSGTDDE

Turning to `CC(C1CCN(c2ccc3c(c2)C(=O)N(C2CCC(=O)NC2=O)C3=O)CC1)N1CCC(CN2CCN3c4cc(-c5ccccc5O)nnc4NCC3C2)CC1` (stereo in doubt) [Example 160, 2-(2,6-dioxopiperidin-3-yl)-5-[4-[1-[4-[[(10S)-4-(2-hydroxyphenyl)-1,5,6,8,12-pentazatricyclo[8.4.0.02,7]tetradeca-2(7),3,5-trien-12-yl]methyl]piperidin-1-yl]ethyl]piperidin-1-yl]isoindole-1,3-dione], on SMARCA2-HiBiT, the 50% degradation concentration (DC50) was less than 10 nM and the Dmax fell in the range of 75 to 85%. On SMARCA4-HiBiT, the DC50 is less than 10 nM and the greatest degradation seen (Dmax) fell in the range of 50 to 75%.

Turning to `O=C1CCC(N2C(=O)c3ccc(N4CCC(CN5C[C@@H]6[C@H](C5)[C@H]6CN5CCN6c7cc(-c8ccccc8O)nnc7NC[C@H]6C5)[C@@H](F)C4)cc3C2=O)C(=O)N1` (stereo in doubt) [Example 192, 2-(2,6-dioxopiperidin-3-yl)-5-[(3R,4R)-3-fluoro-4-[[(1S,5R)-6-[[(10S)-4-(2-hydroxyphenyl)-1,5,6,8,12-pentazatricyclo[8.4.0.02,7]tetradeca-2(7),3,5-trien-12-yl]methyl]-3-azabicyclo[3.1.0]hexan-3-yl]methyl]piperidin-1-yl]isoindole-1,3-dione], on SMARCA2-HiBiT, the DC50 is less than 10 nM and the maximal degradation (Dmax) fell in the range of 50 to 75%. On SMARCA4-HiBiT, the DC50 is less than 10 nM and the Dmax was not above 50%.

Regarding `C[C@H]1CN2c3cc(-c4ccccc4O)nnc3NC[C@H]2CN1C[C@H]1[C@@H]2CN(CC3CCN(c4ccc5c(c4)C(=O)N(C4CCC(=O)NC4=O)C5=O)C[C@@H]3F)C[C@@H]21` (stereo in doubt) [Example 199, 2-(2,6-dioxopiperidin-3-yl)-5-[(3R,4R)-3-fluoro-4-[[(1S,5R)-6-[[(10S,13S)-4-(2-hydroxyphenyl)-13-methyl-1,5,6,8,12-pentazatricyclo [8.4.0.02,7]tetradeca-2(7),3,5-trien-12-yl]methyl]-3-azabicyclo [3.1.0]hexan-3-yl]methyl]piperidin-1-yl]isoindole-1,3-dione], on SMARCA2-HiBiT, the DC50 is less than 10 nM and the Dmax is more than 85%. On SMARCA4-HiBiT, the DC50 was less than 10 nM and the maximal degradation (Dmax) fell in the range of 50 to 75%.

Take `O=C1CCC(NC(=O)c2ccc(N3CCC(CN4CCC(N5CCN6c7cc(-c8ccccc8O)nnc7NC[C@H]6C5)CC4)CC3)cn2)C(=O)N1` (stereo partly drawn) [Example 24, N-(2,6-dioxopiperidin-3-yl)-5-(4-((4-((S)-2-(2-hydroxyphenyl)-5,6,6a,7,9,10-hexahydro-8H-pyrazino[1′,2′:4,5]pyrazino[2,3-c]pyridazin-8-yl)piperidin-1-yl)methyl)piperidin-1-yl)picolinamide]: the 50% degradation concentration (DC50) at SMARCA2-HiBiT and at SMARCA4-HiBiT was less than 10 nM in each case. The Dmax on SMARCA2-HiBiT was more than 85%; on SMARCA4-HiBiT it was 75 to 85%.

As for `CC12CNc3nnc(-c4ccccc4O)cc3N1CCN(C1CCN(CCCc3ccc4c(c3)c3cccnc3n4C3CCC(=O)NC3=O)CC1)C2` (centres unmarked) [Example 25, 3-(6-(3-(4-(2-(2-hydroxyphenyl)-6a-methyl-5,6,6a,7,9,10-hexahydro-8H-pyrazino[1′,2′:4,5]pyrazino[2,3-c]pyridazin-8-yl)piperidin-1-yl)propyl)-9H-pyrido[2,3-b]indol-9-yl)piperidine-2,6-dione], at SMARCA2-HiBiT, the DC50 was less than 10 nM and the Dmax was more than 85%. At SMARCA4-HiBiT, the DC50 is less than 10 nM and the greatest degradation seen (Dmax) fell in the range of 75 to 85%.

Take `O=C1CCC(n2ccc3cc(N4CCC(CN5CCC(N6CCN7c8cc(-c9ccccc9O)nnc8NC[C@H]7C6)CC5)CC4)ccc3c2=O)C(=O)N1` (stereo partly drawn) [Example 26, 3-(6-(4-((4-((S)-2-(2-hydroxyphenyl)-5,6,6a,7,9,10-hexahydro-8H-pyrazino [1′,2′:4,5]pyrazino[2,3-c]pyridazin-8-yl)piperidin-1-yl)methyl)piperidin-1-yl)-1-oxoisoquinolin-2(1H)-yl)piperidine-2,6-dione]: on SMARCA2-HiBiT, the half-maximal degradation concentration (DC50) was less than 10 nM and the Dmax is more than 85%. For the same molecule, on SMARCA4-HiBiT, the DC50 is less than 10 nM and the Dmax is more than 85%.

Turning to `O=C1CCC(n2c3ccc(CCCN4CCC(N5CCN(C6C[C@@H]7CNc8nnc(-c9ccccc9O)cc8N7C6)CC5)CC4)cc3c3cccnc32)C(=O)N1` (stereo partly drawn) [Example 27, 3-(6-(3-(4-(4-((6aR)-2-(2-hydroxyphenyl)-5,6,6a,7,8,9-hexahydropyrrolo [1′,2′:4,5]pyrazino[2,3-c]pyridazin-8-yl)piperazin-1-yl)piperidin-1-yl)propyl)-9H-pyrido[2,3-b]indol-9-yl)piperidine-2,6-dione], at SMARCA2-HiBiT, the DC50 is less than 10 nM and the Dmax lay in the range of 50 to 75%. Also, at SMARCA4-HiBiT, the DC50 was less than 10 nM and the maximal degradation (Dmax) lay within 50 to 75%.

`C[C@H]1CN2c3cc(-c4ccccc4O)nnc3NC[C@H]2CN1CC1CCN(CC2CCN(c3ccc4c(c3)C(=O)N(C3CCC(=O)NC3=O)C4=O)CC2)CC1` (stereo partly drawn) [Example 28, 2-(2,6-dioxopiperidin-3-yl)-5-(4-((4-(((6aS,9S)-2-(2-hydroxyphenyl)-9-methyl-5,6,6a,7,9,10-hexahydro-8H-pyrazino[1′,2′:4,5]pyrazino[2,3-c]pyridazin-8-yl)methyl)piperidin-1-yl)methyl)piperidin-1-yl) isoindoline-1,3-dione]: on SMARCA2-HiBiT, the DC50 was less than 10 nM and the greatest degradation seen (Dmax) was more than 85%. Moreover, on SMARCA4-HiBiT, the DC50 was less than 10 nM and the greatest degradation seen (Dmax) lay in the range of 75 to 85%.

Regarding `CN(C1CCN(CC2CCN(c3ccc4c(c3)C(=O)N(C3CCC(=O)NC3=O)C4=O)CC2)CC1)C1C[C@@H]2CNc3nnc(-c4ccccc4O)cc3N2C1` (stereo partly drawn) [Example 29, 2-(2,6-dioxopiperidin-3-yl)-5-(4-((4-(((6aR)-2-(2-hydroxyphenyl)-5,6,6a,7,8,9-hexahydropyrrolo[1′,2′:4,5]pyrazino[2,3-c]pyridazin-8-yl)(methyl)amino)piperidin-1-yl)methyl)piperidin-1-yl) isoindoline-1,3-dione], on SMARCA2-HiBiT, the 50% degradation concentration (DC50) is less than 10 nM and the greatest degradation seen (Dmax) was more than 85%. Besides, at SMARCA4-HiBiT, the DC50 is less than 10 nM and the Dmax is more than 85%.

Consider `O=C1CCC(N2C(=O)c3ccc(N4CCC(CN5CCC(N6CCN7c8cc(-c9ccccc9O)nnc8NC[C@H]7C6)CC5)CC4)cc3C2=O)C(=O)N1` (stereo partly drawn) [Example 30, 2-(2,6-dioxopiperidin-3-yl)-5-(4-((4-((S)-2-(2-hydroxyphenyl)-5,6,6a,7,9,10-hexahydro-8H-pyrazino[1′,2′:4,5]pyrazino[2,3-c]pyridazin-8-yl)piperidin-1-yl)methyl)piperidin-1-yl)isoindoline-1,3-dione], for which, on SMARCA2-HiBiT, the DC50 was less than 10 nM and the Dmax is more than 85%. Moreover, at SMARCA4-HiBiT, the 50% degradation concentration (DC50) was less than 10 nM and the maximal degradation (Dmax) was more than 85%.

Regarding `O=C1CCC(N2C(=O)c3ccc(N4CCC(CN5CCC(CN6CCN7c8cc(-c9ccccc9O)nnc8NC[C@H]7C6)CC5)CC4)cc3C2=O)C(=O)N1` (stereo partly drawn) [Example 31, 2-(2,6-dioxopiperidin-3-yl)-5-(4-((4-(((S)-2-(2-hydroxyphenyl)-5,6,6a,7,9,10-hexahydro-8H-pyrazino[1′,2′:4,5]pyrazino[2,3-c]pyridazin-8-yl)methyl)piperidin-1-yl)methyl)piperidin-1-yl)isoindoline-1,3-dione], the DC50 at SMARCA2-HiBiT and at SMARCA4-HiBiT was less than 10 nM in each case. Further, the maximal degradation (Dmax) on SMARCA2-HiBiT and on SMARCA4-HiBiT was more than 85% throughout.
